Assay results as given in patent US20060276440A1, “Treatment of inflammatory disorders” (priority 2005, published 2006).
“Also recorded” adds a separate entry of the source.

Experiments:
[1] = tested on: IL-1 pathway; test: 4A1 Sentinel line IL-1-stimulated luciferase reporter assay; assay type: cell-based; settings: Homo sapiens; 4A1 cells
Method: Reporter activities of Sentinel® clones were measured using the Steady-Glo® Luciferase assay system (Promega, Madison, Wis.), according to the manufacturer's instructions, and were normalized to cell numbers based on nucleic acid quantification (CyQuant® cell proliferations assay, Molecular Probes/Invitrogen, Carlsbad, Calif.). In order to identify potential anti-inflammatory compounds, the OSM-responding Sentinel® clone 4A1 was used for a library screen of approximately 1800 compounds.
Sentinel lines were developed by utilizing promoter trapping technology in combination with positive and negative selections to efficiently deliver reporter genes into endogenously regulated genetic sites. Using this approach, a Sentinel cell line, 4A1, in A549 lung carcinoma cells that responded specifically to OSM and IL-1 stimulation among a panel of cytokines and active compounds was established (FIG. 9A).
To identify compounds that inhibit OSM signaling, the collection of approximately 1800 compounds was screened using the 4A1 Sentinel line.

[2] = tested on: MMP-13; test: IL-1-stimulated pro-MMP-13 production in SW1353 cells (ELISA); assay type: cell-based; settings: Homo sapiens, IL-1 alone
Method: For matrix metalloproteinase (MMP) measures, SW1353 cells were grown to confluence in 24 well plates, washed in DMEM (with Ham's F12) and placed in 500 ul of serum free DMEM/F-12 with 0.2% lactalbumin hydrosylate with and without OsM/IL-1. After 24 hrs, supernatants were collected and the amounts of proMMP13, totalMMP2, and proMMP1 were measured using Quantikine® ELISA kit for human MMPs (R & D systems, Minneapolis, Minn.). All MMP measures were normalized to viable cell numbers based on a tetrazolium (MTS) colorimetric measure (Promega, Madison, Wis.).
The human chondrosarcoma cell line, SW1353, was used as the cell system for examining CA4's effect on OSM- and IL-1-mediated signal transduction. […] Therefore, MMP-13 was used as a surrogate marker of CA4 effects on OSM and IL-1 signaling in SW1353 cells. […] This observation is in agreement with that obtained with the 4A1 Sentinel® reporter line.

[3] = tested on: MMP-13; test: OSM-stimulated pro-MMP-13 production in dedifferentiated primary chondrocytes; assay type: cell-based; settings: FIG. 12D, listed as CA4
[4] = tested on: JAK/STAT pathway (STAT 1, 3, 5); test: STAT phosphorylation (FACS) and nuclear translocation (immunostaining) in SW1353 cells; assay type: cell-based, human; settings: 20 nM, OSM/IL-1 activation
Method: SW1353 cells were seeded and treated as described above. For the flow cytometric analysis of intracellular phopho-proteins, trypsinized SW1353 cells were fixed in 1.5% formaldehyde at room temperature (RT), and permeabilized in ice cold methanol for minimum of 10 minutes. After 2× wash in wash buffer (D-PBS, with 1% FBS), cells were stained with phospho-specific antibodies (5 ug/ml final) for 20 minutes, washed 2× in wash buffer, followed by 20 minutes incubation with phycoerythrin-conjugated anti-mouse IgG (10 ug/ml final). Following 2× wash in wash buffer, cells were analyzed by flow cytometry.
For immunohistochemistry of intracellular phospho-proteins, fixation and permeabilization conditions were identical to the ones used for flow cytometric analysis. For the visualization of the phosphor-specific proteins, ImmPRESS Universal Antibody kit (Vector Laboratories, Burlingame, Calif.) was used.
The cellular and molecular mechanisms by which CA4 repressed pro-MMP-13 production, using SW1353 as the model system were investigated. […] The pathways that mediate OSM and IL-1 signal transduction were then examined. Using inhibitors that target key components of the pathways, it was shown that JAK/STAT, p38, JNK, and NF-κB pathways were important for OSM/IL-1-stimulated pro-MMP-13 production (FIG. 13B-E), but not ERK or Cox1/2 pathways (data not shown). […]

[5] = tested on: murine collagen-induced arthritis (CIA) model; test: Murine collagen-induced arthritis (CIA) model; assay type: in vivo
Method: Male 6-8 week old B10RIII (Jackson Labs) mice were immunized at day 0, followed by a booster immunization on day 15.
Clinical scores started on day 16 and continued daily. Mice were sacrificed on day 26. Clinical scores of mouse paws were based on a 0-5 scoring system with 0 being normal and 5 being the most severe edema and erythema conditions. ELISAs on collected plasma samples were performed using commercial kits: IL-1β (R & D systems, Minneapolis, Minn.), anti-collagen II (Chondrex, Redmont, Wash.), and Rheumatoid Factors (IgG) (Alpha Diagnostic International, San Antonio, Tex.).
CA4 at 50, 33, and 0 (vehicle) mg/ml in osmotic pumps (0.5 ul/hr; equivalent to 25, 16 and 0 mg/kg/day) was administered subcutaneously to murine collagen-induced arthritis model usin ghte B10RIII strain 12 days after the 1st immunization (day 0) of type II collagen. […] Dexamethasone at 0.2 mg/kg was injected daily subcutaneously as a positive control.

[6] = Kirwan et al. 2004; cited from earlier work

For `COc1ccc(/C=C\c2cc(OC)c(OC)c(OC)c2)cc1O` [Combretastatin A4 (1), (Z)-5-(3,4,5-trimethoxystyryl)-2-methoxyphenol], the IC50 [1] was 6.9 ± 0.4 nM, the IC50 [2] was 5.2 ± 1.9 nM and the “OSM-stimulated pro-MMP-13 production” value [3] was “inhibited OSM-stimulated pro-MMP-13 production dose-dependently”. The “STAT 1, 3, 5 phosphorylation” value ([4]; FACS) was “did not affect”, the STAT nuclear translocation ([4]; immunostaining) was “did not affect” and the knee joint histopathology ([5]; 16 mg/kg/day by osmotic pumps) was “intermediate joint histopathological damages”. The survival ([5]; 16 mg/kg/day group, by day 22) was “All of the mice in the 16 mg/kg/day group survived”, the knee joint histopathology ([5]; 25 mg/kg/day by osmotic pumps) was “only minimal synovitis, minimal proteoglycan and cartilage loss, few infiltrated inflammatory cells, and no panus formation or bone resorption” and the mice died ([5]; 25 mg/kg/day group, by day 22) was “Eight of 15”. The arthritis incidence rate ([5]; 25 and 16 mg/kg/day s.c. osmotic pumps vs vehicle, day 15-22, listed as CA4) was “dose-dependently reduced the arthritis incidence rate”, the “macroscopic arthritis clinical scores of the paws” value ([5]; 25 and 16 mg/kg/day s.c. osmotic pumps, listed as CA4) was “reduced the symptomatic macroscopic scores of the paws; also recorded: significantly reduced macroscopic arthritis clinical scores” and the body weight ([5]; CA4 treatment by osmotic pumps, FIG. 15C) was “without dramatically affecting body weight”. The “reduction of plasma IL-1β levels” value ([5]; both CA4-treated groups (25, 16 mg/kg/day), ELISA) was “more than 50%”, the “titers of Rheumatoid Factors” value ([5]; both doses of CA4 (25, 16 mg/kg/day), plasma ELISA) was “improved significantly to lower levels” and the “anti-type II collagen antibody titer” value ([5]; higher dose of CA4 (25 mg/kg/day), plasma ELISA) was “significantly, albeit modestly, reduced”. For the same molecule, the “half time in mouse plasma” value [6] was “approximately 0.5 hour”.
